Our source for the IC50 values is ChEMBL document CHEMBL5257070, “The Asymmetric Total Synthesis and Configuration Confirmation of Aplysiaenal and Nhatrangin A, Truncated Derivatives of Aplysiatoxin and Oscillatoxin” (J Nat Prod, 2023).

SMILES strings stand for the structures. pIC50: −log10 of the molar value.

In one test the test system is L1210. The test is described as follows: Cytotoxicity against mouse L1210 cells incubated for 72 hrs by WST-8 method. The class given is functional, cell-based. To be noted: L1210, 72 h.
The test system of another test is HCT-116. The test is described as follows: Cytotoxicity against human HCT-116 cells incubated for 72 hrs by MTT assay. To be noted: HCT-116, 72 h. The class given is functional, cell-based.

With `CO[C@@H](CC[C@H](C)/C=C(\C)C=O)c1cccc(O)c1`, the pIC50 (usually the IC50 on a negative log10 scale, so that one unit is a factor of ten) in the test on L1210 was 4.03; in the test with HCT-116, under 4.00.

In turn, `CO[C@@H](CC[C@H](C)[C@H]1O[C@@]2(C=C[C@@H]1C)[C@H](C(=O)O[C@H]1COC(=O)C1)C(=O)[C@H](C)CC2(C)C)c1cccc(O)c1` had a pIC50 with L1210 of 4.32.

For `CO[C@@H](CC[C@H](C)[C@@H](OC(=O)C[C@@H](O)[C@@H](C)O)[C@@H](C)C(=O)O)c1cccc(O)c1`, the pIC50 in the test with L1210 and in the test with HCT-116 was under 4.00 each time.
